# Assay results: patent US8163898B2, “4-sulfonylpiperidine derivatives” (MSD K. K., priority 2007, dated 2012)
# Like-named read-outs stand apart in the source and are kept apart here.
# Target: T1, human LCE (Homo sapiens, UniProt Q9H5J4)
# T1 sequence (Q9H5J4 1-265): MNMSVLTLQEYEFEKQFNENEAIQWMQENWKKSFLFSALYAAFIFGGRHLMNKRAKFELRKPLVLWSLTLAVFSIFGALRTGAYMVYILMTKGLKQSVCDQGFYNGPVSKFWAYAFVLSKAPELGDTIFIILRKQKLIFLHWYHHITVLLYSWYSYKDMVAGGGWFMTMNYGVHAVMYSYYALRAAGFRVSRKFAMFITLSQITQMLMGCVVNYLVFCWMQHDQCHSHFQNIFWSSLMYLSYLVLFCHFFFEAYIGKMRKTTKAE
# Assay: LCE enzyme activity inhibition test
# Assay type: biochemical
# Procedure: Pharmacological Test Example 1 (LCE Enzyme Activity Inhibition Test)
# A test compound was dissolved in dimethylsulfoxide (DMSO) to 10 mM, and further diluted with DMSO to prepare a 1000-fold concentrated solution, compared with the evaluated concentration. The LCE enzyme activity inhibition test was carried out according to a modification of the method of Moon (J. Biol. Chem., Vol. 276, pp. 45358-45366 (2001)) et al. Specifically, the diluted test compound was added to a 96-well assay plate (Corning, 96-well assay block) at 1.0 μL per well, and then 50 μL of phosphate buffer solution (100 mM potassium phosphate buffer solution (pH 6.5)), 25 μL of substrate solution (100 mM potassium phosphate buffer solution (pH 6.5)), 4.0 μM rotenone, 80 μM fatty acid free bovine serum albumin, 160 μM palmitoyl-CoA 80 μM malonyl-CoA, and 3.5 μM [^14C]-malonyl-CoA (1.92 GBq/mmol, manufactured by Amersham) were added to each well. Further, 25 μL of enzyme solution (100 mM potassium phosphate buffer solution (pH 6.5), 100 μg/mL human LCE) was added thereto. The plate was hermetically closed at the top with a seal, and then incubated with gentle agitation by shaking at 37° C. for 90 minutes. Subsequently, 100 μL of 5N HCl was added to each well, and the assay plate was agitated for 5 minutes at room temperature to stop the enzymatic reaction and also hydrolyze acyl-CoA. Subsequently, the enzymatic reaction solution of each well was adsorbed on each well of a 96-well GF/C filter plate (PerkinElmer, UniFilter 96 GF/C) that had been previously dipped in water. The wells were washed with water to remove unabsorbed malonyl-CoA, and the GF/C filter plate was dried at 50° C. for 60 minutes. Subsequently, 30 μL of scintillator (PerkinElmer, MicroScinti 0) was added to each well, and the plate was sealed at the top. Using a microplate scintillation counter (PerkinElmer, TopCount), the radiation activity of the fixed [^14C] was measured and obtained as the enzyme activity. The human LCE enzyme inhibitory activity of a test compound was calculated based on the radio activity in the well containing test-compound-free DMSO as a control. Compounds of the invention were examined according to this assay.
# [1] = human LCE, [14C]-malonyl-CoA and palmitoyl-CoA substrate, 37° C. for 90 minutes, pH 6.5, read-out: IC50
Compound,IC50 [1] [nM],IC50 [nM]
"O=C(Nc1ccc(C(F)(F)F)cc1)N1C2CCC1CC(S(=O)(=O)c1ccc(F)cc1)C2 (centres unmarked) [Example 2, 3-(4-fluorophenyl)sulfonyl-N-[(4-trifluoromethyl)phenyl]-8-azabicyclo[3.2.1]octane-8-carboxamide]",108,–
"O=C(Nc1ccc(C(F)(F)F)cc1)N1C2CCC1CC(S(=O)(=O)c1ccccn1)C2 (centres unmarked) [Example 9, 3-(pyridin-2-ylsulfonyl)-N-[(4-trifluoromethyl)phenyl]-8-azabicyclo[3.2.1]octane-8-carboxamide]",–,92
"O=C(Nc1ccc(C(F)(F)F)cc1)N1C2CCC1CC(S(=O)(=O)c1ncccn1)C2 (centres unmarked) [Example 12, 3-(pyrimidin-2-ylsulfonyl)-N-[(4-trifluoromethyl)phenyl]-8-azabicyclo[3.2.1]octane-8-carboxamide]",100,–
"O=C(Nc1ccc(C(F)(F)F)nc1)N1C2CCC1CC(S(=O)(=O)c1ccccc1)C2 (centres unmarked) [Example 32, 3-phenylsulfonyl-N-[6-(trifluoromethyl)pyridin-3-yl]-8-azabicyclo[3.2.1]octane-8-carboxamide]",127,–
"O=C(Nc1cncc(C(F)(F)F)c1)N1C2CCC1CC(S(=O)(=O)c1ccccc1)C2 (centres unmarked) [Example 33, 3-phenylsulfonyl-N-[5-(trifluoromethyl)pyridin-3-yl]-8-azabicyclo[3.2.1]octane-8-carboxamide]",103,–
O=C(Nc1ccc(C(F)(F)F)cn1)N1C2CCC1CC(S(=O)(=O)c1ncccn1)C2 (centres unmarked) [Example 35],194,–
"CC(C)(C)c1ccc(NC(=O)N2C3CCC2CC(S(=O)(=O)c2ccccn2)C3)cc1 (centres unmarked) [Example 40, N-(4-tert-butylphenyl)-3-(pyridin-2-ylsulfonyl)-8-azabicyclo[3.2.1]octane-8-carboxamide]",125,–

# Now from value to compound, other results behind:
IC50 [1] [nM],Compound,IC50 [nM]
98,"O=C(Nc1ccc(C(F)(F)F)cc1)N1C2CCC1CC(S(=O)(=O)c1ccccc1)C2 (centres unmarked) [Example 1, 3-phenylsulfonyl-N-[(4-trifluoromethyl)phenyl]-8-azabicyclo[3.2.1]octane-8-carboxamide]",–
29,"CC(C)c1ccc(NC(=O)N2C3CCC2CC(S(=O)(=O)c2ccccc2)C3)cc1 (centres unmarked) [Example 16, N-(4-isopropylphenyl)-3-phenylsulfonyl-8-azabicyclo[3.2.1]octane-8-carboxamide]",–
32,"CC(C)c1ccc(NC(=O)N2C3CCC2CC(S(=O)(=O)c2ccccn2)C3)cc1 (centres unmarked) [Example 36, N-(4-isopropylphenyl)-3-(pyridin-2-ylsulfonyl)-8-azabicyclo[3.2.1]octane-8-carboxamide]",–
22,"CC(C)c1ccc(NC(=O)N2C3CCC2CC(S(=O)(=O)c2ncccn2)C3)cc1 (centres unmarked) [Example 37, N-(4-isopropylphenyl)-3-(pyrimidin-2-ylsulfonyl)-8-azabicyclo[3.2.1]octane-8-carboxamide]",–
